What all share (assay): relative viability (nuclei count vs DMSO), 5 days (fraction); higher = more cells survive
Compound in test [1]: CC1=NC=CC(=C1)C2=CC=C(C=C2)CC(=O)NC3=CC=C(C=C3)C4=CN=CC=C4 [Wnt-C59] + C[C@@H](Oc1cc(-c2cnn(C3CCNCC3)c2)cnc1N)c1c(Cl)ccc(F)c1Cl [Crizotinib] (partner 1 µM)
The procedure, abridged: (§1)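 Lung cancer cell lines in 1536-well plates were dosed by pin tool the day after seeding, either with one drug alone or with a fixed anchor-drug dose plus five library-drug doses (not always all listed) in √10 steps. After 5 days, cells were fixed and their nuclei stained in one step (final 0.05% Triton X-100, 1% formaldehyde, 1 ug/ml Hoechst), then counted on 4× images. Relative viability is the nuclei count in treated wells divided by that in vehicle wells. Values are medians of duplicate plates.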

Compound in test [2]: CS(=O)(=O)CCNCc1ccc(-c2ccc3ncnc(Nc4ccc(OCc5cccc(F)c5)c(Cl)c4)c3c2)o1 [Lapatinib] + COc1cc2c(Oc3ccc(NC(=O)C4(C(=O)Nc5ccc(F)cc5)CC4)cc3F)ccnc2cc1OCCCN1CCOCC1 [Foretinib] (partner 0.25 µM)
The procedure, abridged:
as §1

Compound in test [3]: CS(=O)(=O)CCNCc1ccc(-c2ccc3ncnc(Nc4ccc(OCc5cccc(F)c5)c(Cl)c4)c3c2)o1 [Lapatinib] + Cc1cc(Nc2cc(N3CCN(C)CC3)nc(Sc3ccc(NC(=O)C4CC4)cc3)n2)n[nH]1 [Tozasertib] (partner 0.1 µM)
The procedure, abridged:
as §1

Compound in test [4]: CS(=O)(=O)CCNCc1ccc(-c2ccc3ncnc(Nc4ccc(OCc5cccc(F)c5)c(Cl)c4)c3c2)o1 [Lapatinib] + O=C(c1cc(Cc2n[nH]c(=O)c3ccccc23)ccc1F)N1CCN(C(=O)C2CC2)CC1 [Olaparib] (partner 8 µM)
The procedure, abridged: as §1

UMC-11: the relative viability stood at 0.659 in test [1] (first compound 0.001 µM); 0.567 in test [1] (first compound 0.01 µM); 0.588 in test [1] (first compound 0.03162 µM); 0.518 in test [1] (first compound 0.1 µM); 0.951 in test [2] (first compound 0.02 µM); 1.01 in test [2] (first compound 0.06325 µM). The relative viability stood at 0.961 in test [2] (first compound 0.2 µM); 0.978 in test [2] (first compound 0.6325 µM); 0.933 in test [2] (first compound 2 µM); 0.211 in test [3] (first compound 0.06325 µM); 0.209 in test [3] (first compound 0.2 µM); 0.184 in test [3] (first compound 0.6325 µM). Moreover, the relative viability is 0.211 in test [3] (first compound 2 µM); 0.299 in test [4] (first compound 0.02 µM); 0.342 in test [4] (first compound 0.06325 µM); 0.347 in test [4] (first compound 0.2 µM); 0.376 in test [4] (first compound 0.6325 µM); 0.327 in test [4] (first compound 2 µM).
